The values below come from patent US20100130738A1 (priority 2007, published 2010).

Experiment [1] has as its system histamine-induced bronchoconstriction in guinea pigs. Nature of the experiment: Histamine-induced bronchoconstriction reaction in guinea pigs. Type of experiment: in vivo, guinea pig. The settings on record: Cavia porcellus, iv, 0.5 min, compound 0.3 mg/kg i.v., measured 30 seconds after administration, histamine 12.5 μg/kg i.v., read-out: Inhibition rate (histamine-induced bronchoconstriction). How it is done:
Guinea pigs were anesthetized with pentobarbital (30 mg/kg, i.p.). A cannula for intravenous administration, a cannula for collecting blood and measuring blood pressure, and a tracheal cannula were inserted into the left external jugular vein, right internal carotid artery, and trachea, respectively. The guinea pigs were maintained on artificial respiration under conditions of 60 times/min and 10 mL/kg/stroke. The overflowing air from the side branch of the tracheal cannula was measured by a bronchospasm transducer (Ugo-Basile) and recorded on a computer via Power Lab (ADInstruments Japan). The guinea pigs were immobilized with gallamine (10 mg/kg, i.v.), and histamine (12.5 μg/kg, i.v.) was administered at 10-minute intervals. After the histamine-induced bronchoconstriction became stable, the compound (0.3 mg/kg, i.v.) was administered. The histamine-induced bronchoconstriction reaction was measured 30 seconds after the compound administration to examine the bronchoconstriction inhibitory activity of the compound. The bronchoconstriction was recorded as the airflow value, and the results were represented by the ratio of the maximum value of the histamine-induced airflow 30 seconds after administration to the maximum value of the airflow before administration. Also, the test compounds dissolved in DMSO were used. Further, the indications were as follows: inhibition rate≧90% (+++), 90%>inhibition rate≧80% (++), and 80%>inhibition rate≧60% (+).

The target in experiment [2] is T1, PDE3A catalytic domain (PDE3Acat) (Homo sapiens, UniProt Q14432).
T1 construct: isolate the cDNA of a PDE3A catalytic domain; made in house; host or cells: Sf9 insect cells (baculovirus, Bac-to-Bac / Gateway)
The experiment in a line: Phosphodiesterase inhibitory activity, recombinant PDE3Acat, [3H]cAMP. It is filed as biochemical. The following applies: 30° C. 20 minutes, read-out: IC50 (μmol/L) PDE3.

The target of experiment [3] is T2, PDE4Bcat (Homo sapiens, UniProt Q07343).
T2 construct: made in house; host or cells: Sf9 insect cells (baculovirus, Bac-to-Bac / Gateway)
The experiment in a line: Phosphodiesterase inhibitory activity, recombinant PDE4Bcat, [3H]cAMP. It is filed as biochemical. The settings on record: 30° C. 20 minutes, read-out: IC50 (μmol/L) PDE4.

Where only a bound is given, the exact number is not on record here.

T2 sequence (Q07343 330-659 limits assumed): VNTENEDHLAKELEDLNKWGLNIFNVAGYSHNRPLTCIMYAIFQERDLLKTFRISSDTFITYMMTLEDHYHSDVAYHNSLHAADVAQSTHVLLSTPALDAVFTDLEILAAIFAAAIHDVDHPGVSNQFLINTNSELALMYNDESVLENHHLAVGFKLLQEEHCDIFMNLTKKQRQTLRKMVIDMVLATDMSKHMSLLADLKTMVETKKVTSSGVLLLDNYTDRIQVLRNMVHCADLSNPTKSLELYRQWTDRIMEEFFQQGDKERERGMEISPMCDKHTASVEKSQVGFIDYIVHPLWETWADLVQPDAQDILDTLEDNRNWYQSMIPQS
T1 sequence (Q14432 674-1093 limits assumed): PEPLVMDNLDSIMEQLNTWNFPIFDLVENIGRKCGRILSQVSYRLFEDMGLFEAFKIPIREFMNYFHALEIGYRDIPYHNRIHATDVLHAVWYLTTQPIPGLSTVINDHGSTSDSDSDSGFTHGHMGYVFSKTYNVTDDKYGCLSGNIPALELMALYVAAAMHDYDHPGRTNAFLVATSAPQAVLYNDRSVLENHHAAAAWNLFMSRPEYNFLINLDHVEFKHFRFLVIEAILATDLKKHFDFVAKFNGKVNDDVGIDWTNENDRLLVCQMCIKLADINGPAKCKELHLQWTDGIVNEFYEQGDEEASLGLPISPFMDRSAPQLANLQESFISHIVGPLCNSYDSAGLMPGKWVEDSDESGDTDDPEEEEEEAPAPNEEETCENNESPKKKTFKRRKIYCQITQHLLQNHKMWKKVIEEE

With `CCc1ccc2c(C3=NN(CCCCOc4ccc(C5=NNC(=O)CC5)cc4F)C(=O)C3(C)C)ccc(OC)c2n1` [Example 199, 5-(2-Ethyl-8-methoxyquinolin-5-yl)-2-[4-[2-fluoro-4-(6-oxo-1,4,5,6-tetrahydropyridazin-3-yl)phenoxy]butyl]-4,4-dimethyl-2,4-dihydro-pyrazol-3-one], in experiment [1], the inhibition in vivo at 0.3 mg/kg was at least 90%. In addition, the values for the IC50 in experiment [2] and in experiment [3] were 0.01 to 0.1 µmol/L and below 0.01 µmol/L, respectively.

For the compound `CCc1ccc2c(C3=NN(CCCCOc4ccc(C5=NNC(=O)CC5)cc4)C(=O)C3(C)C)ccc(OC)c2n1` [Example 200, 5-(2-Ethyl-8-methoxyquinolin-5-yl)-2-[4-[4-(6-oxo-1,4,5,6-tetrahydropyridazin-3-yl)phenoxy]butyl]-4,4-dimethyl-2,4-dihydro-pyrazol-3-one], in experiment [1], the inhibition in vivo at 0.3 mg/kg was at least 90%. Also, the values for the IC50 in experiment [2] and in experiment [3] were 0.1 to 1 µmol/L and 0.01 to 0.1 µmol/L, respectively.

Regarding `CCc1ccc2c(C3=NN(CCCCOc4ccc(C5=NNC(=O)C5(C)C)cc4F)C(=O)C3(C)C)ccc(OC)c2n1` [Example 202, 5-(2-Ethyl-8-methoxyquinolin-5-yl)-2-[4-[2-fluoro-4-(4,4-dimethyl-5-oxo-4,5-dihydro-1H-pyrazol-3-yl)phenoxy]butyl]-4,4-dimethyl-2,4-dihydro-pyrazol-3-one], in experiment [1], the inhibition in vivo at 0.3 mg/kg was in the range of 60 to 80%. For the same compound, the IC50 in experiment [2] and in experiment [3] was 0.01 to 0.1 µmol/L in each case.

Consider `CCc1ccc2c(C3=NN(CCCCOc4ccc(C5=NNC(=O)C5(C)C)c(F)c4F)C(=O)C3(C)C)ccc(OC)c2n1` [Example 203, 5-(2-Ethyl-8-methoxyquinolin-5-yl)-2-[4-[2,3-difluoro-4-(4,4-dimethyl-5-oxo-4,5-dihydro-1H-pyrazol-3-yl)phenoxy]butyl]-4,4-dimethyl-2,4-dihydro-pyrazol-3-one], for which the inhibition in vivo at 0.3 mg/kg in experiment [1] is at least 90%. The IC50 in experiment [2] was below 0.01 µmol/L; in experiment [3], 0.01 to 0.1 µmol/L.

On to `COc1ccc(C2=NN(CCCCOc3ccc(C4=NNC(=O)CC4C)cc3)C(=O)C2(C)C)c2cccnc12` (stereo not drawn) [Example 212, 5-(8-Methoxyquinolin-5-yl)-2-[4-[4-(4-methyl-6-oxo-1,4,5,6-tetrahydropyridazin-3-yl)phenoxy]butyl]-4,4-dimethyl-2,4-dihydro-pyrazol-3-one], for which, in experiment [1], the inhibition in vivo at 0.3 mg/kg is at least 90%. The IC50 in experiment [2] was below 0.01 µmol/L; in experiment [3], 0.01 to 0.1 µmol/L.

On to `COc1ccc(C2=NN(CCCCOc3ccc(C4=NNC(=O)C4(C)C)c(F)c3F)C(=O)C2(C)C)c2cccnc12` [Example 213, 2-[4-[2,3-Difluoro-4-(4,4-dimethyl-5-oxo-4,5-dihydro-1H-pyrazol-3-yl)phenoxy]butyl]-5-(8-methoxyquinolin-5-yl)-4,4-dimethyl-2,4-dihydro-pyrazol-3-one], for which, in experiment [1], the inhibition in vivo at 0.3 mg/kg is at least 90%. The values for the IC50 in experiment [2] and in experiment [3] were below 0.01 µmol/L and 0.01 to 0.1 µmol/L, respectively.

Consider `COc1ccc(C2=NN(CCCCOc3ccc(C4=NNC(=O)CC4C)c(F)c3F)C(=O)C2(C)C)c2cccnc12` (stereo not drawn) [Example 214, 2-[4-[2,3-Difluoro-4-(4-methyl-6-oxo-1,4,5,6-tetrahydropyridazin-3-yl)phenoxy]butyl]-5-(8-methoxyquinolin-5-yl)-4,4-dimethyl-2,4-dihydro-pyrazol-3-one], for which, in experiment [1], the inhibition in vivo at 0.3 mg/kg was at least 90%. In addition, the IC50 in experiment [2] is below 0.01 µmol/L; in experiment [3], 0.01 to 0.1 µmol/L.

Regarding `COc1ccc(C2=NN(CCCCOc3ccc(C4=NNC(=O)CC4C)cc3F)C(=O)C2(C)C)c2cccnc12` (stereo not drawn) [Example 215, 2-[4-[2-Fluoro-4-(4-methyl-6-oxo-1,4,5,6-tetrahydropyridazin-3-yl)phenoxy]butyl]-5-(8-methoxyquinolin-5-yl)-4,4-dimethyl-2,4-dihydro-pyrazol-3-one], in experiment [1], the inhibition in vivo at 0.3 mg/kg is at least 90%. Moreover, the values for the IC50 in experiment [2] and in experiment [3] were below 0.01 µmol/L and 0.01 to 0.1 µmol/L, respectively.

Consider `COc1ccc(C2=NN(CCCCOc3ccc(C4=NNC(=O)CC4)c(F)c3F)C(=O)C2(C)C)c2[nH]c(C(F)(F)F)nc12` [Example 219, 2-[4-[2,3-Difluoro-4-(6-oxo-1,4,5,6-tetrahydropyridazin-3-yl)phenoxy]butyl]-5-(4-methoxy-2-trifluoromethyl-1H-benzo[d]imidazol-7-yl)-4,4-dimethyl-2,4-dihydro-pyrazol-3-one], for which the inhibition in vivo at 0.3 mg/kg in experiment [1] is at least 90%. For the same compound, the IC50 in experiment [2] and in experiment [3] was below 0.01 µmol/L in each case.

In the case of `COc1ccc(C2=NN(CCCCOc3ccc(C4=NNC(=O)C4(C)C)c(F)c3F)C(=O)C2(C)C)c2[nH]c(C(F)(F)F)nc12` [Example 220, 2-[4-[2,3-Difluoro-4-(4,4-dimethyl-5-oxo-4,5-dihydro-1H-pyrazol-3-yl)phenoxy]butyl]-5-(4-methoxy-2-trifluoromethyl-1H-benzo[d]imidazol-7-yl)-4,4-dimethyl-2,4-dihydro-pyrazol-3-one], the inhibition in vivo at 0.3 mg/kg in experiment [1] is at least 90%. For the same compound, the IC50 is 0.01 to 0.1 µmol/L in experiment [2] and below 0.01 µmol/L in experiment [3].

Take `COc1ccc(C2=NN(CCCCOc3ccc(C4=NNC(=O)CC4C)c(F)c3F)C(=O)C2(C)C)c2[nH]c(C(F)(F)F)nc12` (stereo not drawn) [Example 221, 2-[4-[2,3-Difluoro-4-(4-methyl-6-oxo-1,4,5,6-tetrahydropyridazin-3-yl)phenoxy]butyl]-5-(4-methoxy-2-trifluoromethyl-1H-benzo[d]imidazol-7-yl)-4,4-dimethyl-2,4-dihydro-pyrazol-3-one]: the inhibition in vivo at 0.3 mg/kg in experiment [1] is at least 90%. In addition, the IC50 in experiment [2] and in experiment [3] was below 0.01 µmol/L in each case.

Regarding `COc1ccc(C2=NN(CCCCOc3ccc(C4=NNC(=O)CC4C)c(F)c3F)C(=O)C2(C)C)c2sc(C(F)(F)F)nc12` (stereo not drawn) [Example 228, 2-[4-[2,3-Difluoro-4-(4-methyl-6-oxo-1,4,5,6-tetrahydropyridazin-3-yl)phenoxy]butyl]-5-(4-methoxy-2-trifluoromethylbenzo[d]thiazol-7-yl)-4,4-dimethyl-2,4-dihydro-pyrazol-3-one], the inhibition in vivo at 0.3 mg/kg in experiment [1] lay within 80 to 90%. Moreover, the IC50 in experiment [2] and in experiment [3] was below 0.01 µmol/L each time.

Turning to `COc1ccc(C2=NN(CCCCOc3ccc(C4=NNC(=O)CC4)c(F)c3F)C(=O)C2(C)C)c2sc(C(F)(F)F)nc12` [Example 229, 2-[4-[2,3-Difluoro-4-(6-oxo-1,4,5,6-tetrahydropyridazin-3-yl)phenoxy]butyl]-5-(4-methoxy-2-trifluoromethylbenzo[d]thiazol-7-yl)-4,4-dimethyl-2,4-dihydro-pyrazol-3-one], the inhibition in vivo at 0.3 mg/kg in experiment [1] was at least 90%. Besides, the IC50 in experiment [2] and in experiment [3] was below 0.01 µmol/L throughout.

As to `COc1ccc(C2=NN(CCCCOc3ccc(C4=NNC(=O)CC4C)c(F)c3F)C(=O)C2(C)C)n2cc(C(F)(F)F)nc12` (stereo not drawn) [Example 234, 2-[4-[2,3-Difluoro-4-(4-methyl-6-oxo-1,4,5,6-tetrahydropyridazin-3-yl)phenoxy]butyl]-5-(8-methoxy-2-trifluoromethylimidazo[1,2-a]pyridin-5-yl)-4,4-dimethyl-2,4-dihydro-pyrazol-3-one], in experiment [1], the inhibition in vivo at 0.3 mg/kg is 80 to 90%. Moreover, the IC50 in experiment [2] and in experiment [3] was below 0.01 µmol/L throughout.

As for `COc1ccc(C2=NN(CCCCOc3ccc(C4=NNC(=O)CC4)c(F)c3F)C(=O)C2(C)C)n2cc(C(F)(F)F)nc12` [Example 235, 2-[4-[2,3-Difluoro-4-(6-oxo-1,4,5,6-tetrahydropyridazin-3-yl)phenoxy]butyl]-5-(8-methoxy-2-trifluoromethylimidazo[1,2-a]pyridin-5-yl)-4,4-dimethyl-2,4-dihydro-pyrazol-3-one], in experiment [1], the inhibition in vivo at 0.3 mg/kg is 80 to 90%. Besides, the IC50 in experiment [2] and in experiment [3] was below 0.01 µmol/L each time.

Consider `COc1ccc(C2=NN(CCCCOc3ccc(C4=NNC(=O)C4(C)C)c(F)c3F)C(=O)C2(C)C)n2cc(C(F)(F)F)nc12` [Example 236, 2-[4-[2,3-Difluoro-4-(4,4-dimethyl-5-oxo-4,5-dihydro-1H-pyrazol-3-yl)phenoxy]butyl]-5-(8-methoxy-2-trifluoromethylimidazo[1,2-a]pyridin-5-yl)-4,4-dimethyl-2,4-dihydro-pyrazol-3-one], for which the inhibition in vivo at 0.3 mg/kg in experiment [1] was in the range of 60 to 80%. The IC50 is 0.01 to 0.1 µmol/L in experiment [2] and below 0.01 µmol/L in experiment [3].

Consider `CCc1ccc2c(C3=NN(CCCCOc4ccc(C5=NNC(=O)CC5)cc4OC)C(=O)C3(C)C)ccc(OC)c2n1` [Example 238], for which the inhibition in vivo at 0.3 mg/kg in experiment [1] was 60 to 80%. Also, the IC50 in experiment [2] and in experiment [3] was 0.1 to 1 µmol/L in each case.

For `CCc1ccc2c(C3=NN(CCCOc4ccc(C5=NNC(=O)CC5C)c(F)c4F)C(=O)C3(C)C)ccc(OC)c2n1` (stereo not drawn) [Example 241, 5-(2-Ethyl-8-methoxyquinolin-5-yl)-2-[4-[2,3-difluoro-4-(4-methyl-6-oxo-1,4,5,6-tetrahydropyridazin-3-yl)phenoxy]propyl]-4,4-dimethyl-2,4-dihydro-pyrazol-3-one], the inhibition in vivo at 0.3 mg/kg in experiment [1] is at least 90%. Moreover, the IC50 in experiment [2] was below 0.01 µmol/L; in experiment [3], 0.1 to 1 µmol/L.
